Experimental data reported in ChEMBL document CHEMBL2040791, “Synthesis of novel 6-(4-substituted piperazine-1-yl)-9-(β-D-ribofuranosyl)purine derivatives, which lead to senescence-induced cell death in liver cancer cells” (J Med Chem, 2012).
pIC50: −log10 of the molar value. The source made the active and inactive calls. No cut-off for these calls is given here.

Columns and labels:
[1] = Cytotoxicity against human Mahlavu cells after 72 hrs by SRB assay; assay type: functional, cell-based
[2] = Cytotoxicity against human FOCUS cells after 72 hrs by SRB assay; assay type: functional, cell-based
MCF7 = test: Cytotoxicity against human MCF7 cells after 72 hrs by SRB assay; assay type: functional, cell-based; details: for pIC50: Homo sapiens, MCF7, 72 h, read-out: IC50; for IC50: mcf7, TDE = time-dependent effect
Huh-7 [3] = test: Cytotoxicity against human HuH7 cells after 72 hrs by SRB assay; assay type: functional, cell-based; details: for pIC50: Homo sapiens, Huh-7, 72 h, read-out: IC50; for IC50: huh-7, TDE = time-dependent effect
HepG2 [4] = test: Cytotoxicity against human HepG2 cells after 72 hrs by SRB assay; assay type: functional, cell-based; details: for pIC50: Homo sapiens, HepG2, 72 h, read-out: IC50; for IC50: hepg2, TDE = time-dependent effect
HCT-116 = test: Cytotoxicity against human HCT116 cells after 72 hrs by SRB assay; assay type: functional, cell-based; details: for pIC50: Homo sapiens, HCT-116, 72 h, read-out: IC50; for IC50: hct-116, TDE = time-dependent effect
Huh-7 [5] = test: Induction of senescence in human HuH7 cells assessed as increase in senescence associated beta-galactosidase activity at 25 ng/mL after 3 to 6 days by X-GAL based staining method; assay type: functional, cell-based
Huh-7 [6] = test: Antiproliferative activity in human HuH7 cells assessed as inhibition of BrdU incorporation at 25 ng/mL after 3 to 6 days; assay type: functional, cell-based
Huh-7 [7] = test: Inhibition of protein kinase in human HuH7 cells assessed as increase in ATP level at 5 uM after 72 hrs by Kinase-Glo assay; assay type: cell-based
FOCUS [8] = test: Growth inhibition of human FOCUS cells measured every 30 mins by real-time cell electronic sensing assay; assay type: functional, cell-based
Huh-7 [9] = test: Growth inhibition of human HuH7 cells measured every 30 mins by real-time cell electronic sensing assay; assay type: functional, cell-based
FOCUS [10] = test: Growth inhibition of human FOCUS cells at 5 to 30 uM by real-time cell electronic sensing assay; assay type: functional, cell-based; details: TDE = time-dependent effect
Huh-7 [11] = test: Induction of p15INK4b protein expression in human HuH7 cells at cytotoxic IC50 to IC100 concentration by Western blot analysis; assay type: functional, cell-based; details: TDE = time-dependent effect
Huh-7 [12] = test: Antiproliferative activity in human HuH7 cells assessed as inhibition of BrdU incorporation at cytotoxic IC50 to IC100 concentration after 3 to 6 days; assay type: functional, cell-based
Huh-7 [13] = test: Induction of p15INK4b protein expression in human HuH7 cells after 3 to 6 days by Western blot analysis; assay type: functional, cell-based
Huh-7 [14] = test: Induction of senescence in human HuH7 cells assessed as increase in senescence associated beta-galactosidase activity at cytotoxic IC50 to IC100 concentration after 3 to 6 days by X-GAL based staining method; assay type: functional, cell-based
Mahlavu [15] = test: Growth inhibition of human Mahlavu cells measured every 30 mins by real-time cell electronic sensing assay; assay type: functional
HepG2 [16] = test: Growth inhibition of human HepG2 cells at 5 to 30 uM by real-time cell electronic sensing assay; assay type: functional, cell-based; details: TDE = time-dependent effect
Huh-7 [17] = test: Growth inhibition of human HuH7 cells at 5 to 30 uM by real-time cell electronic sensing assay; assay type: functional, cell-based; details: TDE = time-dependent effect
Huh-7 [18] = test: Induction of apoptosis in human HuH7 cells assessed as PARP cleavage into 89 kDa and 24 kDa fragments at 7.8 uM after 72 hrs by Western blot analysis; assay type: functional, cell-based
Huh-7 [19] = test: Inhibition of protein kinase in human HuH7 cells assessed as increase in ATP level after 72 hrs by Kinase-Glo assay; assay type: cell-based
HepG2 [20] = test: Induction of apoptosis in human HepG2 cells assessed as PARP cleavage into 89 kDa and 24 kDa fragments at 5.7 uM after 72 hrs by Western blot analysis; assay type: functional, cell-based
FOCUS [21] = test: Induction of necrosis in human FOCUS cells assessed as PARP cleavage into 50 kDa fragment at 5.2 uM after 72 hrs by Western blot analysis; assay type: functional, cell-based
FOCUS [22] = test: Induction of apoptosis in human FOCUS cells assessed as PARP cleavage into 89 kDa and 24 kDa fragments at 5.2 uM after 72 hrs by Western blot analysis; assay type: functional, cell-based
Mahlavu [23] = test: Induction of necrosis in human Mahlavu cells assessed as PARP cleavage into 50 kDa fragment at 9.2 uM after 72 hrs by Western blot analysis; assay type: functional, cell-based
Huh-7 [24] = test: Induction of necrosis in human HuH7 cells assessed as PARP cleavage into 50 kDa fragment at 7.8 uM after 72 hrs by Western blot analysis; assay type: functional, cell-based
Huh-7 [25] = test: Induction of p15INK4b protein expression in human HuH7 cells assessed as inhibition of cyclinD1/[…]-mediated Rb phosphorylation at cytotoxic IC50 to IC100 concentration after 6 days by Western blot analysis; assay type: functional, cell-based
HepG2 [26] = test: Induction of necrosis in human HepG2 cells assessed as PARP cleavage into 50 kDa fragment into at 5.7 uM after 72 hrs by Western blot analysis; assay type: functional, cell-based
Mahlavu [27] = test: Growth inhibition of human Mahlavu cells at 5 to 30 uM by real-time cell electronic sensing assay; assay type: functional; details: TDE = time-dependent effect
Mahlavu [28] = test: Induction of apoptosis in human Mahlavu cells assessed as PARP cleavage into 89 kDa and 24 kDa fragments at 9.2 uM after 72 hrs by Western blot analysis; assay type: functional, cell-based
HepG2 [29] = test: Growth inhibition of human HepG2 cells measured every 30 mins by real-time cell electronic sensing assay; assay type: functional, cell-based

With `OC[C@H]1O[C@@H](n2cnc3c(N4CCN(c5ccccc5)CC4)ncnc32)[C@H](O)[C@@H]1O` as the compound, how does the pIC50 [1] read?
The pIC50 was under 4.00.

And the pIC50 [2]?
Its pIC50 is under 4.00.

And the pIC50 (MCF7)?
The pIC50 was under 4.00.

What about the IC50 (MCF7) of the same compound?
Its IC50 is “tde”.

And the pIC50 (Huh-7 [3])?
The pIC50 was under 4.00.

And the IC50 (Huh-7 [3])?
Its IC50 is “tde”.

What about the pIC50 (HepG2 [4]) of the same compound?
Its pIC50 is under 4.00.

And the IC50 (HepG2 [4])?
The IC50 was “tde”.

And the pIC50 (HCT-116)?
Its pIC50 is under 4.00.

And the IC50 (HCT-116)?
The IC50 was “tde”.

With `OC[C@H]1O[C@@H](n2cnc3c(N4CCN(C(c5ccccc5)c5ccccc5)CC4)ncnc32)[C@H](O)[C@@H]1O` as the compound, how does the pIC50 [1] read?
The pIC50 was 4.03.

And the pIC50 [2]?
The pIC50 was under 4.00.

What about the pIC50 (MCF7) of the same compound?
The pIC50 was 4.40.

What about the IC50 (MCF7) of the same compound?
Its IC50 is “tde”.

And the pIC50 (Huh-7 [3])?
The pIC50 was 4.35.

What about the IC50 (Huh-7 [3]) of the same compound?
Its IC50 is “tde”.

What about the pIC50 (HepG2 [4]) of the same compound?
Its pIC50 is 4.20.

What about the IC50 (HepG2 [4]) of the same compound?
The IC50 was “tde”.

And the pIC50 (HCT-116)?
The pIC50 was 4.31.

What about the IC50 (HCT-116) of the same compound?
The IC50 was “tde”.

With `COc1cccc2c1C(=O)c1c(O)c3c(c(O)c1C2=O)C[C@@](O)(C(=O)CO)C[C@@H]3O[C@H]1C[C@H](N)[C@H](O)[C@H](C)O1` as the compound, how does the Activity (Huh-7 [5]) read?
Its Activity is “Active”.

What about the Activity (Huh-7 [6]) of the same compound?
Its Activity is “Active”.

Which results are given for `O=c1[nH]cc(F)c(=O)[nH]1` [FLUOROURACIL]?
pIC50 [1]: 5.00; pIC50 [2]: 5.12; pIC50 (MCF7): 5.46; pIC50 (Huh-7 [3]): 4.51; pIC50 (HepG2 [4]): 5.30; pIC50 (HCT-116): 5.22

What does the source list for `CC[C@@]1(O)C(=O)OCc2c1cc1n(c2=O)Cc2cc3ccccc3nc2-1` [CAMPTOTHECIN]?
pIC50 [1]: > 7.00; pIC50 [2]: > 7.00; pIC50 (MCF7): > 7.00; pIC50 (Huh-7 [3]): > 7.00; pIC50 (HepG2 [4]): > 7.00; pIC50 (HCT-116): > 7.00

With `OC[C@H]1O[C@@H](n2cnc3c(N4CCN(c5ccc(Cl)c(Cl)c5)CC4)ncnc32)[C@H](O)[C@@H]1O` as the compound, how does the pIC50 [1] read?
The pIC50 was 5.15.

What about the pIC50 [2] of the same compound?
Its pIC50 is 5.26.

What about the pIC50 (MCF7) of the same compound?
Its pIC50 is 5.01.

And the IC50 (MCF7)?
The IC50 was “tde”.

And the pIC50 (Huh-7 [3])?
Its pIC50 is 5.15.

And the IC50 (Huh-7 [3])?
The IC50 was “tde”.

What about the pIC50 (HepG2 [4]) of the same compound?
Its pIC50 is 5.21.

What about the IC50 (HepG2 [4]) of the same compound?
The IC50 was “tde”.

What about the pIC50 (HCT-116) of the same compound?
Its pIC50 is 5.08.

And the IC50 (HCT-116)?
Its IC50 is “tde”.

Which inhibition (Huh-7 [7]) does the source give for `CSC[C@H]1O[C@@H](n2cnc3c(N)ncnc32)[C@H](O)[C@@H]1O` here?
The inhibition was “Active”.

For `OC[C@H]1O[C@@H](n2cnc3c(N4CCN(c5ccc(C(F)(F)F)cc5)CC4)ncnc32)[C@H](O)[C@@H]1O`, which “growth inhibition (GI)” value (FOCUS [8]) is on record?
Its value is “Dose-dependent effect”.

And the “growth inhibition (GI)” value (Huh-7 [9])?
The value was “Dose-dependent effect”.

And the “growth inhibition (GI)” value (FOCUS [10])?
Its value is “tde”.

What about the pIC50 [1] of the same compound?
The pIC50 was 5.04.

And the Activity (Huh-7 [11])?
Its Activity is “tde”.

And the pIC50 [2]?
The pIC50 was 5.28.

What about the Activity (Huh-7 [12]) of the same compound?
The Activity was “Active”.

What about the Activity (Huh-7 [13]) of the same compound?
Its Activity is “Dose-dependent effect”.

And the Activity (Huh-7 [14])?
The Activity was “Active”.

What about the “growth inhibition (GI)” value (Mahlavu [15]) of the same compound?
The value was “Dose-dependent effect”.

And the pIC50 (MCF7)?
The pIC50 was 5.12.

What about the IC50 (MCF7) of the same compound?
The IC50 was “tde”.

And the “growth inhibition (GI)” value (HepG2 [16])?
Its value is “tde”.

And the “growth inhibition (GI)” value (Huh-7 [17])?
The value was “tde”.

And the Activity (Huh-7 [18])?
The Activity was “inactive”.

What about the inhibition (Huh-7 [19]) of the same compound?
Its inhibition is “Dose-dependent effect”.

What about the Activity (HepG2 [20]) of the same compound?
Its Activity is “inactive”.

What about the Activity (FOCUS [21]) of the same compound?
Its Activity is “inactive”.

And the Activity (FOCUS [22])?
Its Activity is “inactive”.

What about the Activity (Mahlavu [23]) of the same compound?
The Activity was “inactive”.

And the Activity (Huh-7 [24])?
The Activity was “inactive”.

What about the pIC50 (Huh-7 [3]) of the same compound?
Its pIC50 is 5.11.

What about the IC50 (Huh-7 [3]) of the same compound?
The IC50 was “tde”.

What about the Activity (Huh-7 [25]) of the same compound?
The Activity was “Active”.

What about the pIC50 (HepG2 [4]) of the same compound?
The pIC50 was 5.24.

What about the IC50 (HepG2 [4]) of the same compound?
Its IC50 is “tde”.

And the Activity (HepG2 [26])?
Its Activity is “inactive”.

What about the “growth inhibition (GI)” value (Mahlavu [27]) of the same compound?
Its value is “tde”.

And the Activity (Mahlavu [28])?
The Activity was “inactive”.

What about the “growth inhibition (GI)” value (HepG2 [29]) of the same compound?
The value was “Dose-dependent effect”.

And the pIC50 (HCT-116)?
Its pIC50 is 5.17.

What about the IC50 (HCT-116) of the same compound?
Its IC50 is “tde”.

With `OC[C@H]1O[C@@H](n2cnc3c(N4CCN(c5ccc(F)cc5)CC4)ncnc32)[C@H](O)[C@@H]1O` as the compound, how does the pIC50 [1] read?
The pIC50 was under 4.00.

And the pIC50 [2]?
Its pIC50 is under 4.00.

What about the pIC50 (MCF7) of the same compound?
Its pIC50 is under 4.00.

What about the IC50 (MCF7) of the same compound?
Its IC50 is “tde”.

And the pIC50 (Huh-7 [3])?
The pIC50 was 4.30.

What about the IC50 (Huh-7 [3]) of the same compound?
Its IC50 is “tde”.

What about the pIC50 (HepG2 [4]) of the same compound?
The pIC50 was under 4.00.

And the IC50 (HepG2 [4])?
The IC50 was “tde”.

What about the pIC50 (HCT-116) of the same compound?
The pIC50 was under 4.00.

What about the IC50 (HCT-116) of the same compound?
The IC50 was “tde”.
